The values that follow come from ChEMBL document CHEMBL4421719, “Modulation of k2p channels” (2016).

Holding throughout (assay type): cell-based
Assay [1] addresses Potassium channel subfamily K member 3 (Homo sapiens) (UniProt O14649). Put plainly: Activation of K2P3.1 (unknown origin) expressed in Xenopus oocytes assessed as effect on channel currents at -80 mV holding potential at 100 uM by two-electrode voltage clamp assay relative to control.
Assay [2] has as its target T1, Potassium channel subfamily K member 2 (Homo sapiens) (UniProt O95069).
T1 sequence (whole entry): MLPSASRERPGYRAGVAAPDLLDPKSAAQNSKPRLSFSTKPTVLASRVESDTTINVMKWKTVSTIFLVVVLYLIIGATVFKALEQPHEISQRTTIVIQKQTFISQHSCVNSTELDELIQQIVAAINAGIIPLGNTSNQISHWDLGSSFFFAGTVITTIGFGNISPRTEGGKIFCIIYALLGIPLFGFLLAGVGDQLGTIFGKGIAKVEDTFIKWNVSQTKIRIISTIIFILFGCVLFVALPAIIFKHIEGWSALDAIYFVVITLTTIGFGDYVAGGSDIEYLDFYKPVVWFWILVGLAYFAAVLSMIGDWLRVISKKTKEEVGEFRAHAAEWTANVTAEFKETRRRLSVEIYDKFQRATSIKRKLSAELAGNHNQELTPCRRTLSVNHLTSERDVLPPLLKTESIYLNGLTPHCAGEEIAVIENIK
Put plainly: Activation of K2P2.1 (unknown origin) expressed in HEK293T cell membranes in outside-out patch configuration assessed as effect on channel currents by measuring time of half-maximal activation at 20 uM by two-electrode voltage clamp assay relative to control.

Assay [3] addresses Potassium channel subfamily K member 3 (Homo sapiens) (UniProt O14649). Put plainly: Activation of K2P3.1 (unknown origin) expressed in Xenopus oocytes assessed as effect on channel currents at -80 mV holding potential by two-electrode voltage clamp assay relative to control.
Assay [4] concerns the target T1, Potassium channel subfamily K member 2 (Homo sapiens). The assay is described as follows: Activation of K2P2.1 (unknown origin) expressed in HEK293T cell membranes in inside-out patch configuration assessed as effect on channel currents by measuring time of return to baseline following compound washout at 20 uM by two-electrode voltage clamp assay relative to control.

Assay [5] has the same target. Put plainly: Activation of K2P2.1 (unknown origin) expressed in HEK293T cells assessed as effect on channel currents at -40 mV holding potential by two-electrode voltage clamp assay relative to control.
Assay [6] shares this target. Put plainly: Activation of K2P2.1 (unknown origin) expressed in HEK293T cells assessed as effect on channel currents at -40 mV holding potential at 100 uM by two-electrode voltage clamp assay relative to control.
For the next assay, the species on record is Homo sapiens. The assay is described as follows: Activation of K2P2.1 3G mutant (unknown origin) expressed in Xenopus oocytes assessed as effect on channel currents at -80 mV holding potential by two-electrode voltage clamp assay relative to control.
Assay [7] addresses T1, Potassium channel subfamily K member 2 (Homo sapiens). The assay is described as follows: Reversible activation of K2P2.1 (unknown origin) expressed in HEK293T cells assessed as effect on channel currents at -0 mV holding potential at 5 to 20 uM by two-electrode voltage clamp assay relative to control.
Assay [8] has as its system Potassium channel subfamily K member 2 (Homo sapiens), O95069 [UNDEFINED MUTATION]. Put plainly: Activation of K2P2.1 W275S mutant (unknown origin) expressed in Xenopus oocytes assessed as effect on channel currents at -80 mV holding potential by two-electrode voltage clamp assay relative to control.
The target in assay [9] is T1, Potassium channel subfamily K member 2 (Homo sapiens). Put plainly: Activation of K2P2.1 (unknown origin) expressed in HEK293T cell membranes in inside-out patch configuration assessed as effect on channel currents at 20 uM by two-electrode voltage clamp assay relative to control.
For assay [10] the target is unchanged. Put plainly: Activation of K2P2.1 (unknown origin) expressed in whole HEK293T cells in assessed as effect on channel currents by measuring time of half-maximal activation at 20 uM by two-electrode voltage clamp assay relative to control.
A short description of assay [11]: Activation of K2P2.1 3G mutant (unknown origin) expressed in Xenopus oocytes assessed as effect on channel currents at -80 mV holding potential by two-electrode voltage clamp assay. The following applies: Homo sapiens.
For assay [12], the system named is Potassium channel subfamily K member 2 (Homo sapiens), O95069 [UNDEFINED MUTATION]. Put plainly: Activation of K2P2.1 G137I mutant (unknown origin) expressed in Xenopus oocytes assessed as effect on channel currents at 50 uM at -80 mV holding potential by two-electrode voltage clamp assay.
Assay [13] deals with T2, Potassium channel subfamily K member 18 (Homo sapiens) (UniProt Q7Z418).
T2 sequence (whole entry): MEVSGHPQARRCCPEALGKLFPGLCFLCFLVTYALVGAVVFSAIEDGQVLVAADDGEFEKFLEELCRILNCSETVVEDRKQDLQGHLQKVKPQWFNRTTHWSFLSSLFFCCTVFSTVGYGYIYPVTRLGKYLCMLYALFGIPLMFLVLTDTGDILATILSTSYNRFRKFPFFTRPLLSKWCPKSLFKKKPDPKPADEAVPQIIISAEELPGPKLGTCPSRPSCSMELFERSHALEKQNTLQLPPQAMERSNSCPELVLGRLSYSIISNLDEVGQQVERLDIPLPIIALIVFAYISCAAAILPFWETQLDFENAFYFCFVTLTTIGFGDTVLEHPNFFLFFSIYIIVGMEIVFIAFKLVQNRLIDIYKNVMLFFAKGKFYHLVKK
Put plainly: Activation of K2P18.1 (unknown origin) expressed in Xenopus oocytes assessed as effect on channel currents at -80 mV holding potential by two-electrode voltage clamp assay relative to control.

In assay [14] the target is Potassium voltage-gated channel subfamily KQT member 2 (Homo sapiens) (UniProt O43526). Put plainly: Activation of Kv7.2 (unknown origin) expressed in Xenopus oocytes assessed as effect on channel currents at 100 uM at -80 mV holding potential by two-electrode voltage clamp assay relative to control.
Potassium voltage-gated channel subfamily KQT member 2 (Homo sapiens), sequence (O43526 whole entry): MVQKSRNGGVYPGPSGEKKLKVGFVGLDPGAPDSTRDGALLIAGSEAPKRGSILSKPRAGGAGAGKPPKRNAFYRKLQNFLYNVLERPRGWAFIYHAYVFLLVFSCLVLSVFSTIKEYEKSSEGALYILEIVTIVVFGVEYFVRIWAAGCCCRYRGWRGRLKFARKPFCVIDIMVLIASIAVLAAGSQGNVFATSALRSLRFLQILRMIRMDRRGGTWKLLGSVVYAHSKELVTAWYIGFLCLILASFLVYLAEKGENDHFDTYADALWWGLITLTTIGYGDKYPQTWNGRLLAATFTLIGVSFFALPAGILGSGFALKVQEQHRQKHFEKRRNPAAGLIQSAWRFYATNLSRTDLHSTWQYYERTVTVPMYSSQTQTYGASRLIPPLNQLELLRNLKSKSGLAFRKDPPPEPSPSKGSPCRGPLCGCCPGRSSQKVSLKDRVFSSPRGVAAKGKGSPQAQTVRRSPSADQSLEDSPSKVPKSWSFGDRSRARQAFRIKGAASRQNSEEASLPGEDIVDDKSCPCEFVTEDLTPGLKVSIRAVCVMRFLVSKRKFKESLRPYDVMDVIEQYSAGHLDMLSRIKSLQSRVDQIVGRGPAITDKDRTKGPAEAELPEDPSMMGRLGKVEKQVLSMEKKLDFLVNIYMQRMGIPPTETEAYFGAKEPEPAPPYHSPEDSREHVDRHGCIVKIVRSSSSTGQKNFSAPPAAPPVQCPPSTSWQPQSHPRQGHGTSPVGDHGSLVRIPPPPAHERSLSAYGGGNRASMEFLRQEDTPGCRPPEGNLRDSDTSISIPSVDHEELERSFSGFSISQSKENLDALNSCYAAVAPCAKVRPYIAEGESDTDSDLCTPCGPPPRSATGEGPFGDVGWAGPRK
Assay [15] deals with T3, Potassium channel subfamily K member 4 (Homo sapiens) (UniProt Q9NYG8).
T3 sequence (whole entry): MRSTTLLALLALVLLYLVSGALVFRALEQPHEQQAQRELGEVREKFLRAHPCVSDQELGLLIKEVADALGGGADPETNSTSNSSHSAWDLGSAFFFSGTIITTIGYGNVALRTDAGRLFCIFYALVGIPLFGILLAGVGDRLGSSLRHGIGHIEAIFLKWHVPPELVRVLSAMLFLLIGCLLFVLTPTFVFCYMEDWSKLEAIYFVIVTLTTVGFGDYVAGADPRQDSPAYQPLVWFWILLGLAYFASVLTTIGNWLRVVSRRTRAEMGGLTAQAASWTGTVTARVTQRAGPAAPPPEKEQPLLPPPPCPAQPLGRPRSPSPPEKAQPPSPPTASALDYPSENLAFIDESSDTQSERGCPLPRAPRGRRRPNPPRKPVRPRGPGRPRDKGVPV
The assay is described as follows: Activation of K2P4.1 (unknown origin) expressed in Xenopus oocytes assessed as effect on channel currents at -80 mV holding potential at 100 uM by two-electrode voltage clamp assay relative to control.

The target in assay [16] is T4, Potassium channel subfamily K member 2 (Homo sapiens, UniProt O95069).
T4 sequence (O95069 whole entry): T1 sequence (whole entry)
The assay is described as follows: Activation of K2P2.1 (unknown origin) expressed in Xenopus oocytes assessed as effect on channel currents at -80 mV holding potential by two-electrode voltage clamp assay.

Assay [17] concerns the target T3, Potassium channel subfamily K member 4 (Homo sapiens). The assay is described as follows: Activation of K2P4.1 (unknown origin) expressed in Xenopus oocytes assessed as effect on channel currents at -80 mV holding potential by two-electrode voltage clamp assay relative to control.

Active and inactive are the calls of the source. The rule behind the calls is not given here.

Potassium channel subfamily K member 3 (Homo sapiens), sequence (O14649 whole entry, looked up): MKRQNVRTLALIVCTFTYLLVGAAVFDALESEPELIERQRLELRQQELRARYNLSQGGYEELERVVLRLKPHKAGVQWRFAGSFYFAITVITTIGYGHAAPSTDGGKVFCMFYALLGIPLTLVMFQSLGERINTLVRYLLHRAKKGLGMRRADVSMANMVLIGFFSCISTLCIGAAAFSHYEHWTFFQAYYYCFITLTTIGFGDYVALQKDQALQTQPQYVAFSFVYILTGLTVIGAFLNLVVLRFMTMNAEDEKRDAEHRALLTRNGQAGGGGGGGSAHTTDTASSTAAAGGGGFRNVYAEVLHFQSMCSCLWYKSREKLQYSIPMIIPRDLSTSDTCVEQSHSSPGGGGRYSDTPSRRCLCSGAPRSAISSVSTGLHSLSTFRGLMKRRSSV

On to `CC1(C)c2cc(Cl)ccc2N(CCc2nnn[nH]2)c2ccc(Cl)cc21`, for which the Emax was 1.1% in [1]; 1.1 in [3]; 11.4 in assay [5]; 11.4% in assay [6]; 12.9 in the assay listed under Homo sapiens; 5.1 in assay [8]. For the same compound, the Emax came out at 0.9 in [13], 14.7% in assay [15] and 14.7 in assay [17]. Besides, the values for the T1/2 in assay [2], in assay [4] and in [10] were 4.6 s, 22 s and 4.1 s, respectively. Also, the result in assay [7] and in assay [9] was Active. Besides, the EC50 in [11] is 49.4 µM; in assay [16] it was 36.3 to 38.5 µM. Moreover, the result in assay [12] and in assay [14] was inactive.
